Patent publication US10092547B2, “Substituted aliphanes, cyclophanes, heteraphanes, heterophanes, hetero- heteraphanes and metallocenes useful for treating HCV infections” (priority 2011, dated 2018)

Experiments:
[1] = test system: HCV replicon (NS5A1b) in Huh-7 cells; test: microbe, parasite or virus in culture; assay type: cell-based; details: Hepatitis C virus, 72 h; NS5A1b; HCV replicon-containing Huh-7 cells, three days; read-out: EC50 (μM) NS5A1b
Experimental: (§1) Compounds claimed herein are tested for the ability to inhibit viral replication of the Hepatitis C replicon in cultured cells in which the HCV replicon construct has been incorporated. The HCV replicon system was described by Bartenschlager, et. al (Science, 285, pp. 110-113 (1999)). The replicon system is predictive of in vivo anti-HCV activity; compounds that are active in humans uniformly evidence activity in the replicon assay.
(§2) In this assay HCV replicon containing cells are treated with different concentrations of the test compound to ascertain the ability of the test compound to suppress replication of the HCV replicon. As a positive control, HCV replicon-containing cells are treated with different concentrations of interferon alpha, a known inhibitor of HCV replication. The replicon assay system includes Neomycin Phosphotransferase (NPT) as a component of the replicon itself in order to detect the transcription of replicon gene products in the host cell. Cells in which the HCV replicon is actively replicating have high levels of NPT; the level of NPT is proportional to HCV replication. […] The NPT level of each sample is measured using a captured ELISA.
(§3) A protocol for testing compounds for the ability to inhibit viral replication of the Hepatitis C replicon cultured cells in which the replicon construct has been incorporated, follows.
(§4) The HCV replicon contains, 5′-3′, the HCV-IRES, the neomycin phosphotransferase (neo) gene, the IRES of encephalomyocarditis virus, which directs translation of HCV sequences NS3 to NS5B, and the 3′-NTR. The sequence of the HCV replicon has been deposited in GenBank (Accession no. AJ242652).
(§5) The replicon is transfected into Huh-7 cells using standard methods such as electroporation.
(§6) The equipment and materials include, but are not limited to, Huh-7 HCV replicon-containing cells, maintenance media (DMEM (Dulbecco's modified Eagle media) supplemented with 10% FBS, L-glutamine, non-essential amino acids, penicillin (100 units/ml), streptomycin (100 micrograms/ml), and 500 micrograms/ml of Geneticin (G418), screening media (DMEM supplemented with 10% FBS, L-glutamine, non-essential amino acids, penicillin (100 units/ml) and streptomycin (100 micrograms/ml), 96 well tissue culture plates (flat bottom), 96 well plates (U bottom for drug dilution), Interferon alpha for positive control, fixation reagent (such as methanol: acetone), primary antibody (rabbit anti-NPTII), secondary antibody: Eu-N1 1, and enhancement solution.
(§7) HCV replicon-containing cells support high levels of viral RNA replicon replication when their density is suitable. Over-confluency causes decreased viral RNA replication. Therefore, cells must be kept growing in log phase in the presence of 500 micrograms/ml of G418. Generally, cells should be passed twice a week at 1:4-6 dilution. Cell maintenance is conducted as follows:
(§8) HCV replicon-containing cells are examined under a microscope to ensure that cells growing well. Cells are rinsed once with PBS and 2 ml trypsin is added. The cell/trypsin mixture is incubated at 37° C. in a CO2 incubator for 3-5 minutes. After incubation 10 ml of complete media is added to stop the trypsinization reaction. Cells are blown gently, put into a 15 ml tube, and spun at 1200 rpm for 4 minutes. The trypsin/medium solution is removed. Medium (5 ml) is added and the cells are mixed carefully. The cells are counted.
(§9) The cells are then seeded onto 96-well plates at a density of 6000-7500 cells/100 microliters/well (6-7.5×10^5 cells/10 ml/plate). The plates are then incubated at 37° C. in a 5% CO2 incubator.
(§10) Cells are examined under a microscope approximated 24 hours after seeding and prior to adding drugs. If counting and dilution were performed correctly, cells are 60-70% confluent and nearly all cells should attach and spread evenly in the well.
(§11) HCV replicon-containing cells are rinsed with once PBS once; 2 mls of trypsin are then added. Cells are incubated at 37° C. in a 5% CO2 incubator for 3-5 minutes. […]

HCV replicon (NS5A1b) = test: microbe, parasite or virus in culture; assay type: cell-based; details: Hepatitis C virus, 72 h, HCV replicon-containing cells, three days
Experimental: as §1, §2, §3, §4, §5, §6, §7, §8, §9, §10, §11

SMILES	EC50 [1] [µM]	EC50 (HCV replicon (NS5A1b)) [µM]
COC(=O)N[C@H](C(=O)N1CCC[C@H]1c1nc2cc(-c3cc4ccc3CCc3ccc(c(-c5ccc6[nH]c([C@@H]7CCCN7C(=O)[C@@H](NC(=O)OC)[C@@H](C)OC)nc6c5)c3)CC4)ccc2[nH]1)[C@@H](C)OC [Compound 109]	0.00883	0.0118
COC(=O)N[C@@H](CCSC)C(=O)N1C[C@H](F)C[C@H]1c1nc2cc(-c3cc4ccc3CCc3ccc(c(-c5ccc6[nH]c([C@@H]7C[C@@H](F)CN7C(=O)[C@H](CCSC)NC(=O)OC)nc6c5)c3)CC4)ccc2[nH]1 [Compound 88]	0.00643	0.0618
CC[C@H](C)[C@H](NC(=O)OC)C(=O)N1CCC[C@H]1c1nc2cc(-c3cc4ccc3CCc3ccc(c(-c5ccc6[nH]c([C@@H]7CCCN7C(=O)[C@@H](NC(=O)OC)[C@@H](C)CC)nc6c5)c3)CC4)ccc2[nH]1 [Compound 103]	< 0.00317	0.47
COC(=O)N[C@H](C(=O)N1C[C@H](F)C[C@H]1c1nc2cc(-c3cc4ccc3CCc3ccc(c(-c5ccc6[nH]c([C@@H]7C[C@@H](F)CN7C(=O)[C@@H](NC(=O)OC)C(C)C)nc6c5)c3)CC4)ccc2[nH]1)C(C)C [Compound 87]	0.00653	0.0184
COC(=O)N[C@H](C(=O)N1C2CCC(C2)[C@H]1c1nc2cc(-c3cc4ccc3CCc3ccc(c(-c5ccc6[nH]c([C@@H]7C8CCC(C8)N7C(=O)[C@@H](NC(=O)OC)C(C)C)nc6c5)c3)CC4)ccc2[nH]1)C(C)C [Compound 42]	< 0.0032	0.0044
CC[C@H](C)[C@H](NC(=O)OC)C(=O)N1[C@H](c2nc3cc(-c4cc5ccc4CCc4ccc(c(-c6ccc7[nH]c([C@@H]8C[C@@H]9CCCC[C@@H]9N8C(=O)[C@@H](NC(=O)OC)[C@@H](C)CC)nc7c6)c4)CC5)ccc3[nH]2)C[C@@H]2CCCC[C@@H]21 [Compound 102]	0.0119	0.0358
COC(=O)N[C@H](C(=O)N1[C@H](c2nc(-c3ccc(-c4cc5ccc4CCc4ccc(c(-c6ccc(-c7c[nH]c([C@@H]8C[C@@H]9CCCC[C@@H]9N8C(=O)[C@@H](NC(=O)OC)C(C)C)n7)cc6)c4)CC5)cc3)c[nH]2)C[C@@H]2CCCC[C@@H]21)C(C)C [Compound 60]	0.128	
C=CCOC(=O)N[C@H](C(=O)N1CCC[C@H]1c1nc(-c2ccc(-c3cc4ccc3CCc3ccc(c(-c5ccc(-c6c[nH]c([C@@H]7CCCN7C(=O)[C@@H](NC(=O)OCC=C)C(C)C)n6)cc5)c3)CC4)cc2)c[nH]1)C(C)C [Compound 55]	> 1	
